Results from publication PMC7448123, “Ru(II) Complexes Bearing O, O-Chelated Ligands Induced Apoptosis in A549 Cells through the Mitochondrial Apoptotic Pathway” (Bioinorganic Chemistry and Applications, 2020).

What was measured:
[1] = test system: A549 cells; assay: Comet assay (single-cell gel electrophoresis), DNA damage; assay type: cell-based, human; conditions: 10 μM, 12 h
Description: Single-cell gel electrophoresis was performed to detect DNA damage, as previously described. Comet assay was performed according to the manufacturer's instructions. DNA was stained with SYBR Green I (Trevigen) and imaged under an inverted fluorescence microscope.
Excessive intracellular ROS can activate DNA damaged sensor proteins and lead to DNA damage, an essential hallmark of cell apoptosis. Indeed, the DNA damage effect has been observed in many previously developed Ru(II) complexes. To determine whether or not these complexes can induce DNA damage, the single-cell gel electrophoresis assay (comet assay) was conducted in our study. […] Also, the comet assay (DNA fragments appearance) could serve as a mark for apoptosis assessment. As shown in Figure 6(a), in the control group, there was no comet-like cell observed. […] Increasing the concentration to 20 μM recorded markedly higher levels of comet tails, showing that more DNA fragmentation has occurred.

[2] = test system: MCF-7 (breast cancer); assay: MTT cytotoxicity assay, MCF-7; assay type: cell-based, human; conditions: 48 h
[3] = test system: BEAS-2B (immortalized human bronchial epithelial cells); assay: MTT cytotoxicity assay, normal BEAS-2B; assay type: cell-based; conditions: 48 h
[4] = test system: A549 cells; assay: Western blotting of apoptosis, Bcl-2 family and DNA damage proteins; assay type: cell-based, human
Description: Glyceraldehyde-3-phosphate dehydrogenase (GAPDH) was used as an internal control. The protein concentrations were determined by BCA Protein Assay Kit.

[5] = test system: HeLa (human cervical cancer); assay: MTT cytotoxicity assay, HeLa; assay type: cell-based; conditions: 48 h
[6] = test system: zebrafish embryos; assay: In vivo toxicity on developing zebrafish embryos
[7] = Stability towards GSH and BSA by UV-Vis absorption; assay type: physicochemical; conditions: 12 h, 37 °C, PBS buffer (pH 7.4)
Description: Investigating the hydrolysis in the presence of biorelevant molecules is very important to assess the chemical stability and biological activities of these title complexes.
Figure S8. UV/vis absorption of Ru-1 in the absence and presence of (A) GSH or (B) BSA. All spectra were acquired 12 h after GSH or BSA addition at 37 °C in PBS buffer (pH 7.4).
Figure S9. UV/vis absorption of Ru-2 in the absence and presence of (A) GSH or (B) BSA. All spectra were acquired 12 h after GSH or BSA addition at 37 °C in PBS buffer (pH 7.4).

[8] = Solution stability by UV-Vis absorption in water and CH3CN; assay type: physicochemical; conditions: 298 K, over 24 h, 20 μM
Description: (N-N = dip, dmp) and salicylic acid in the presence of sodium hydroxide. The crude product was purified by chromatography over alumina. The obtained compounds were analyzed by elemental analysis, ESI-MS, ^1H NMR, FTIR, and UV-Vis absorption spectroscopy, and the results were shown in Figures S1–S7 in Supplementary Materials. […] In the UV-visible spectral regions, both complexes consist of two well-resolved absorption bands. In the visible region, these two complexes present a strong MLCT transition at 500–600 nm attributed to the overlap Ru(dπ)-dip or dmp (π^∗) and Ru(dπ)-SA (π^∗). The intense band occurring between 250 nm and 300 nm is attributed to an intra-ligand (IL) π-π^∗ transition by comparing with the spectra of other Ru(II)-polypyridyl complexes.

[9] = test system: A549 cells; assay: Cellular uptake and subcellular distribution by ICP-MS; assay type: cell-based, human
Description: A549 cells were seeded into six-well plates (5.0 × 10^5 cells per well) and grown overnight at 37°C in a 5% CO2 incubator. The cells were incubated with the different concentrations (5, 10, 15, and 20 μM) of Ru(II) complexes for different time intervals (1, 3, and 6 h). After the incubation, the cells were harvested and washed twice with PBS. Cell Mitochondria Isolation Kit was used to extract the nuclear, mitochondrial, and cytoplasmic fractions of the A549 cells. The pellets were digested with 3 mL concentrated nitric acid and 1 mL perhydrol for 24 h and then diluted to 5 mL with ultrapure water. Finally, ICP-MS was used to determine the amount of Ru(II) complexes uptaken by A549 cells.
It is generally acknowledged that the cellular uptake feature of transition metal-based compounds is an essential factor for their biological activities. As repeatedly reported by previous ruthenium complex-related studies, the more cellular uptake results in higher cytotoxicity. The cellular ruthenium concentration was determined by using ICP-MS after 1, 3, and 6 h of exposure to 5, 10, 15, and 20 μM Ru(II) complexes (Figure 2), respectively, and the results were reported as ng of ruthenium per 10^6 cell number.

[10] = test system: HepG2 (human hepatocellular carcinoma); assay: MTT cytotoxicity assay, HepG2; assay type: cell-based; conditions: 48 h
[11] = test system: A549 (human lung carcinoma); assay: MTT cytotoxicity assay, A549; assay type: cell-based; conditions: 48 h; for IC50: MTT
[12] = test system: A549 cells; assay: Hoechst 33342 nuclear staining; assay type: cell-based, human; conditions: 20 μΜ, 24 h
Description: (§1) First, A549 cells were incubated in six-well plates for 12 h and then exposed to Ru(II) complexes for 24 h. After incubation, cell nuclei were stained with Hoechst 33342 (5 μg/mL) for 10 min, washed twice with PBS, and then photographed using an inverted fluorescence microscope. […] The suspension was stained with 5 μL Annexin V-FITC and 10 μL PI at room temperature for 15 min and then analyzed using the flow cytometer.

[13] = test system: A549 cells; assay: Annexin V-FITC/PI apoptosis flow cytometry; assay type: cell-based, human; conditions: 24 h
Description: as §1

[14] = test system: A549 cells; assay: Intracellular ROS level, DCFH-DA flow cytometry; assay type: cell-based, human; conditions: 20 μM, 12 h
Description: The mitochondrial membrane potential (MMP) of A549 cells was analyzed by using an inverted fluorescence microscope and flow cytometry. […] For microscope observation, the collected cells were incubated in complete medium containing JC-1 (10 μg/mL) for 30 min and washed with PBS twice and then imaged by an inverted fluorescence microscope (Nikon, Japan). For flow cytometry analysis, the cells were trypsinized and washed twice with PBS and then incubated in 500 μL PBS containing JC-1 (10 μg/mL) for 30 min at 37°C. The cells were analyzed by flow cytometer immediately. The intracellular ROS level of A549 cells was detected after DCFH-DA stain, as illustrated in our new publication.
Increasing intracellular ROS levels can trigger cell apoptosis. […] To explore the roles of ROS in Ru(II) complex-induced cell apoptosis, we detected intracellular ROS levels by using an inverted fluorescence microscope and flow cytometry after staining A549 cells with DCFH-DA fluorescent dye.

[15] = test system: E. histolytica; design: method as in PMID 17154516; conditions: read-out: IC50 anti-E. histolytica activity in vitro; cited from earlier work

O=C1[O][Ru][O]c2ccccc21.c1ccc(-c2ccnc3c2ccc2c(-c4ccccc4)ccnc23)cc1.c1ccc(-c2ccnc3c2ccc2c(-c4ccccc4)ccnc23)cc1 [Ru-1, [Ru(dip)2(SA)]]
DNA fragmentation, comet assay [1]: well-formed comet tails
IC50 [2]: 29.5 ± 2.2 µM
IC50 [3]: 54.3 ± 3.4 µM
cytochrome c expression in cytosol [4]: apparent enhancement
expression levels of antiapoptotic proteins Bcl-2 and Bcl-xl [4]: downregulated
expression of proapoptotic protein Bax and Bad [4]: increased expression
phosphorylation levels of Chk1 and Chk2 [4]: increased
expression of cleaved-PARP, cleaved caspase-3/8/9 ([4]; 24 h, concentration-dependent): increased
expression of total caspase-3/8 ([4]; 24 h, concentration-dependent): decreased
phosphorylation levels of ATM, ATR, histone, and p53 ([4]; concentration-dependent): upregulation
IC50 [5]: 20.1 ± 1.3 µM
cumulative hatch rate and lethality rate ([6]; 12.5 μM): no difference compared with those of the control group
lethality rate ([6]; 100 μM, after 96 h): lower than 35%
cumulative hatch ([6]; 200 μM, after 72 h treatment): lower than 70%
unhealthy features observed ([6]; 200 μM, at 96 h): pericardial cysts and spine curvature
side effects ([6]; 12.5 to 50 μM): no apparent side effects
development of embryos ([6]; concentration lower than 50 μM, after 96 h): all zebrafish embryos can develop into juvenile zebrafish
malformation ([6]; concentration lower than 100 μM, at 96 h): no malformation was observed
change in characteristic absorption with excessive GSH or BSA (stability) [7]: no significant change
change in UV-Vis absorption spectra (solution stability) [8]: no significant change
Intracellular content of Ru ([9]; 5 μM, 1 h): 120.3 ± 9.5 ng Ru/10^6 A549 cell number
Intracellular content of Ru ([9]; 5 μM, 3 h): 168.5±13.0 ng Ru/10^6 A549 cell number
Intracellular content of Ru ([9]; 5 μM, 6 h): 241.2±10.6 ng Ru/10^6 A549 cell number
Intracellular content of Ru ([9]; 10 μM, 1 h): 146.3±13.7 ng Ru/10^6 A549 cell number
Intracellular content of Ru ([9]; 10 μM, 3 h): 216.8±16.9 ng Ru/10^6 A549 cell number
Intracellular content of Ru ([9]; 10 μM, 6 h): 299.4±1.2 ng Ru/10^6 A549 cell number
Intracellular content of Ru ([9]; 15 μM, 1 h): 178.5±15.4 ng Ru/10^6 A549 cell number
Intracellular content of Ru ([9]; 15 μM, 3 h): 246.7±25.4 ng Ru/10^6 A549 cell number
Intracellular content of Ru ([9]; 15 μM, 6 h): 343.8±17.0 ng Ru/10^6 A549 cell number
Intracellular content of Ru ([9]; 20 μM, 1 h): 215.9±19.4 ng Ru/10^6 A549 cell number
Intracellular content of Ru ([9]; 20 μM, 3 h): 312.4±21.5 ng Ru/10^6 A549 cell number
Intracellular content of Ru ([9]; 20 μM, 6 h): 432.5 ± 12.4 ng Ru/10^6 A549 cell number
Subcellular distribution ([9]; 20 μM, nuclear, mitochondrial and cytoplasmic fractions): mostly accumulated in the cell nucleus, followed by mitochondria
IC50 [10]: 15.4 ± 1 µM
IC50 [11]: 11.3 ± 1.1 µM
apoptotic features, Hoechst 33342 staining [12]: chromatin condensation, nuclear fragmentation, and plasma membrane blebbing
early apoptotic cells (I4) ([13]; 5 μM): 14.71%
late apoptotic/necrotic cells (I2) ([13]; 5 μM): 7.13%
early apoptotic cells (I4) ([13]; 10 μM): 16.27%
early apoptotic cells (I4) ([13]; 20 μM): 21.57%
late apoptotic/necrotic cells (I2) ([13]; 20 μM): 20.78%
MFI higher than the control group [14]: about 3.0 fold

N.N.[Cl][Pt][Cl] [Cisplatin]
IC50 [2]: 16.2 ± 2 µM
IC50 [3]: 21.4 ± 1.5 µM
IC50 [5]: 18.3 ± 1.2 µM
IC50 [10]: 30.2 ± 2 µM
SI (selectivity index) = IC50 (BEAS-2B)/IC50 (A549) [11]: 0.8
IC50 [11]: 27.2 ± 1.4 µM

Cc1ccc2ccc3ccc(C)nc3c2n1.Cc1ccc2ccc3ccc(C)nc3c2n1.O=C1[O][Ru][O]c2ccccc21 [Ru-2, [Ru(dmp)2(SA)]]
DNA fragmentation, comet assay [1]: well-formed comet tails
IC50 [2]: 45.7 ± 3.7 µM
IC50 [3]: 48.1 ± 3.7 µM
IC50 [5]: 32.5 ± 2.4 µM
change in characteristic absorption with excessive GSH or BSA (stability) [7]: no significant change
change in UV-Vis absorption spectra (solution stability) [8]: no significant change
Intracellular content of Ru ([9]; 5 μM, 1 h): 85.4 ± 9.3 ng Ru/10^6 A549 cell number
Intracellular content of Ru ([9]; 5 μM, 3 h): 112.4±9.5 ng Ru/10^6 A549 cell number
Intracellular content of Ru ([9]; 5 μM, 6 h): 142.5±9.6 ng Ru/10^6 A549 cell number
Intracellular content of Ru ([9]; 10 μM, 1 h): 99.4±9.6 ng Ru/10^6 A549 cell number
Intracellular content of Ru ([9]; 10 μM, 3 h): 134.6±8.3 ng Ru/10^6 A549 cell number
Intracellular content of Ru ([9]; 10 μM, 6 h): 173.2±8.9 ng Ru/10^6 A549 cell number
Intracellular content of Ru ([9]; 15 μM, 1 h): 115.8±11.7 ng Ru/10^6 A549 cell number
Intracellular content of Ru ([9]; 15 μM, 3 h): 159.4±8.5 ng Ru/10^6 A549 cell number
Intracellular content of Ru ([9]; 15 μM, 6 h): 204.6±8.9 ng Ru/10^6 A549 cell number
Intracellular content of Ru ([9]; 20 μM, 1 h): 138.7±15.3 ng Ru/10^6 A549 cell number
Intracellular content of Ru ([9]; 20 μM, 3 h): 181.3±9.3 ng Ru/10^6 A549 cell number
Intracellular content of Ru ([9]; 20 μM, 6 h): 235.2 ± 16.6 ng Ru/10^6 A549 cell number
IC50 [10]: 26.4 ± 2.1 µM
IC50 [11]: 30.1 ± 1.2 µM
apoptotic features, Hoechst 33342 staining [12]: chromatin condensation, nuclear fragmentation, and plasma membrane blebbing
early apoptotic cells (I4) ([13]; 5 μM): 2.79%
late apoptotic/necrotic cells (I2) ([13]; 5 μM): 0.00%
early apoptotic cells (I4) ([13]; 10 μM): 15.83%
early apoptotic cells (I4) ([13]; 20 μM): 15.47%
late apoptotic/necrotic cells (I2) ([13]; 20 μM): 10.19%
MFI higher than the control group [14]: ~1.9 fold

CC(=O)C=C(C)[O-].[Cl-].[Ru+2].c1ccc(CCSCCSCCc2ccccn2)nc1 [[Ru(acac)(pdto)]Cl]
IC50 [15]: 0.06 µM
